According to patent US20240191211A1, “BIOLUMINESCENCE-TRIGGERED PHOTOCATALYTIC LABELING” (Promega Corporation, priority 2022, published 2024):
“And” between values parts separate entries of the source, which are not always exact repeats. Equal entries are not always repeated.

Assays:
[1] = Absorbance profile of photoreactive-biotins; assay type: physicochemical
Procedure: Absorbance profiles for 4 mM phenyl-diazirine-biotin and 20-fold lower concentration of phenyl-azide-biotin (i.e., 200 µM) in 8% or 1% DMSO, respectively, were monitored on a SPARK multimode plate reader (FIG. 20B).
Experiments were conducted during development of embodiments herein to explore structural modifications to the phenyl-azide moiety that could decrease the lifetime of its photogenerated intermediates thereby reducing light-dependent background and increasing labeling specificity. Modifications causing red shift absorbance and subsequently lower triplet state energy thereby enabling more efficient bioluminescence-triggered photocatalytic activation were also explored. […]
The structures of the vinyl-naphthyl-azide-biotins and vinyl-quinoline-azide-biotins are shown in FIG. 26A, and their syntheses are included in Example 13. Absorbance profiles for 200 μM activatable labels in 2% DMSO were monitored on a SPARK multimode plate reader (FIG. 26 B-C). […] The naphthyl-azide analogs were further evaluated for their capacity to undergo bioluminescence-triggered photocatalytic protein labeling as well as for their light-dependent, light-independent, and catalyst-independent backgrounds (FIG. 26D). […] To evaluate labeling efficiencies, samples were collected, resolved on SDS-PAGE, transferred to nitrocellulose membranes, and analyzed as described in Example 1. […]

[2] = tested on: K562 cell lysate depleted of biotinylated proteins; test: Photocatalytic protein labeling with azide-biotin analogs driven by HT178-cpNLuc-179:Ir-9049 in K562 lysate; assay type: biochemical; details: for light-independent background: 45 minutes incubation; for light-dependent background: LED 455 nm 10 minutes versus bioluminescence 20 minutes
Description: To evaluate labeling efficiency, samples were collected, resolved on SDS-PAGE, transferred to a nitrocellulose membrane, and analyzed as described in Example 1. Unlike diazirene, light independent as well as light-dependent background was apparent for both LED and bioluminescence. […] These longer-lived intermediates can diffuse further before being quenched by water resulting in overall greater labeling radius and increased light-dependent background.
The aryl-azide-biotin analogs were further evaluated for efficiency and specificity of bioluminescence-triggered photocatalytic protein labeling as well as light-independent background (FIG. 21D). […] Samples were then collected, resolved on SDS-PAGE, transferred to a nitrocellulose membrane, and analyzed as described in Example 1. […] In addition, several substitutions to the phenyl ring increased labeling specificity to different extent likely by impeding the generation-kinetics and/or lifetime of the reactive intermediates resulting with an overall smaller labeling radius.
Subsequently, LED-triggered photocatalytic labeling of the proximal HT178-cpNLuc-179 was detected for all three analogs albeit with high light-dependent background. […] In addition, lifetime of photogenerated reactive intermediates resulted with a range of labeling specificities that would be useful for different applications designed to label a specific protein versus a neighboring environment.
The structures of the vinyl-naphthyl-azide-biotins and vinyl-quinoline-azide-biotins are shown in FIG. 26A, and their syntheses are included in Example 13. Absorbance profiles for 200 μM activatable labels in 2% DMSO were monitored on a SPARK multimode plate reader (FIG. 26 B-C). […] The naphthyl-azide analogs were further evaluated for their capacity to undergo bioluminescence-triggered photocatalytic protein labeling as well as for their light-dependent, light-independent, and catalyst-independent backgrounds (FIG. 26D). […] Bioluminescence was induced upon treatment with 100 μM fluorofurimazine for 20 minutes. To evaluate labeling efficiencies, samples were collected, resolved on SDS-PAGE, transferred to nitrocellulose membranes, and analyzed as described in Example 1. […] Furthermore, a methyl substitution on the vinyl group designed to inhibit Michael addition reduced background, especially for 9615, and increased labeling specificity. This reduced background was generally associated with a blue-shifted absorbance relative to the equivalent vinyl-naphthyl-azide analog.

DNA and RNA = test: LED-triggered singlet oxygen-dependent labeling of DNA and RNA; assay type: biochemical; details: compared to Ir-9049 driven activation of vinyl-naphthyl-azides and vinyl-quinoline-azides
Procedure: Plates remained in the dark (control) or irradiated at 455 nm (2% LED; ˜1.6 W) for 20 minutes using Efficiency Aggregators biophotoreactor. To evaluate covalent crosslinking efficiencies, reactions were cleaned from non-crosslinked activatable labels using Zeba column (ThermoFisher) before being spotted on nitrocellulose membranes using a slot blot apparatus. Membranes were blocked with 5% BSA (Promega) in TBST for 1 hour at room temperature and then incubated overnight at 4° C. with anti-biotin antibody (Invitrogen) in TBST. Next day, membranes were washed three times with TBST and then incubated for an hour with a secondary anti-goat-HRP-antibody (Jackson laboratories). Following three washes in TBST, membranes were treated with ECL substrate (Promega) and scanned on the chemiluminescence channel to detect DNA or RNA labeled with biotin.

[3] = tested on: K562 cell lysate depleted of biotinylated proteins; test: Bioluminescence-triggered photocatalytic protein labeling with diazirine-biotin in K562 lysate; assay type: biochemical
Procedure: The two fusions orientations were further tethered to chloroalkane-catalyst conjugates and compared for their capacity to drive bioluminescence-triggered photocatalytic protein labeling (FIG. 16B). […] Bioluminescence was induced upon treatment with 10× fluorofurimazine at a final concentration of 100 µM while control wells remained untreated. Following a 15 minutes incubation, samples were collected, resolved on SDS-PAGE, transferred to a nitrocellulose membrane, and analyzed as described in Example 1. […]
Reactions comprising 100 μM diazirine-biotin, 0.1 mg/mL K562 cell lysate depleted of biotinylated proteins, and 60 nM conjugate were assembled in TBS pH 7.5 within wells of a white 96-well plate. […] Following a 15 minutes incubation, samples were collected, resolved on SDS-PAGE, transferred to a nitrocellulose membrane, and analyzed as described in Example 1. […]
This example summarizes the optimization of the bioluminescent photocatalytic system that provided an overall 900-fold increase in bioluminescence-triggered photocatalytic protein labeling (FIG. 18). […] Following a 20-minutes incubation, samples were collected, resolved on SDS-PAGE, transferred to a nitrocellulose membrane, and analyzed as described in Example 1 (FIG. 18A). […]

FKBP-HiBiT = test: Photocatalytic labeling upon complementation of FKBP-HiBiT with LgBiT-HaloTag:Ir-9049; assay type: biochemical; details: HEK293 cell lysate; LED, furimazine or fluorofurimazine
Procedure: HEK293 cell lysate with estimated expression of 2000 nM FKBP-HiBiT was serially diluted into control HEK293 cell lysate to generate 4× lysate solutions with expression levels of 960 nM, 480 nM, 240 nM, and […] while maintaining constant concentration of total proteins. […] Following treatment with 10× diazirine-biotin at a final concentration of […], the UV-transparent plates were subjected to 455 nm radiation at 0-3.2 W for 15 min (Efficiency Aggregators biophotoreactor), and the white plate were further treated for 30 minutes with either furimazine or fluorofurimazine at a final concentration of 100 µM while control wells remained untreated. Samples were then collected, resolved on SDS-PAGE, transferred to a nitrocellulose membrane, and analyzed as described in Example 1. Light-dependent labeling of both LgBiT-HaloTag and FKBP-HiBiT were detected upon radiation or treatment with either furimazine or fluorofurimazine.

In the case of `[N-]=[N+]=Nc1ccc2cc(C(=O)NCCOCCOCCOCCOCCNC(=O)CCCC[C@@H]3SC[C@@H]4NC(=O)N[C@@H]43)ccc2c1` [Compound 9043], the “absorbance λmax” value ([1]; 200 μM in 2% DMSO) was 255 nm and 305 nm and the light-independent background [2] was “significantly decreased”.

In the case of `[N-]=[N+]=Nc1ccc(C(=O)NCCOCCOCCOCCOCCNC(=O)CCCC[C@@H]2SC[C@@H]3NC(=O)N[C@@H]32)c(O)c1` [Compound 9046], the light-independent background [2] was “significantly decreased”.

In the case of `[N-]=[N+]=Nc1ccc(C(=O)NCCOCCOCCOCCOCCNC(=O)CCCC[C@@H]2SC[C@@H]3NC(=O)N[C@@H]32)cc1` [Compound 9069], the “labeling of proximal model protein and background” value ([2]; LED or bioluminescence, NanoLuc-HaloTag:Ir-9049 or HT178-cpNLuc-179:Ir-9049) was “relatively high background”.

In the case of `C/C(=C\C(=O)NCCOCCOCCOCCOCCNC(=O)CCCC[C@@H]1SC[C@@H]2NC(=O)N[C@@H]21)c1ccc(N=[N+]=[N-])cc1` [Compound 9162], the red shift absorbance ([1]; aryl-azide analogs compared to phenyl-azide-biotin 9069) was 20 nm, the light-independent background [2] was “significantly decreased” and the light-dependent background [2] was “highest light-dependent background”.

With `C/C(=C\C(=O)NCCOCCOCCOCCOCCNC(=O)CCCC[C@@H]1SC[C@@H]2NC(=O)N[C@@H]21)c1ccc(N=[N+]=[N-])c(C#N)c1` [Compound 9422, N-((E)-18-(4-azido-3-cyanophenyl)-16-oxo-3,6,9,12-tetraoxa-15-azanonadec-17-en-1-yl)-5-((3aS,4S,6aR)-2-oxohexahydro-1H-thieno[3,4-d]imidazol-4-yl)pentanamide] the light-independent background [2] was “significantly decreased” and the light-dependent background [2] was “significantly reduced light-dependent background”.

With `O=C(NCCOCCOCCCCCCCl)OCCOCCOCCOCCNC(=O)c1ccc2c(c1)C(=O)OC21c2ccc(O)c(Br)c2Oc2c1ccc(O)c2Br` [PS-9850] the “nucleic acid labeling via singlet oxygen generation” value (DNA and RNA) was “lower efficiencies”.

In the case of `Nc1cccc(-c2cn3c(=O)c(Cc4ccco4)nc-3c(Cc3ccccc3F)[nH]2)c1F` [fluorofurimazine], the “increase in total light output” value ([3]; filtered luminescence 610 nm/LP accumulated over 20 minutes, versus furimazine) was 5 fold, the “increase in protein labeling” value ([3]; relative to preceding optimization step, 20 minutes) was 5 fold and the “labeling of LgBiT-HaloTag and FKBP-HiBiT” value (FKBP-HiBiT) was “Highest labeling”.
